Key:
TrkB = TrkB (Homo sapiens, UniProt Q16620); experiment: Inhibitory activity test for Trk kinases (γ-33P-ATP isotope test), TrkB; format: biochemical; settings: 33P-ATP 10 μM, 2 h reaction; read-out: Kinase IC50 TrkB
Experimental: (§1) Inhibitory Activity Test for Trk Kinases
(§2) In this experiment, the γ-^33P-ATP isotope test was used to test the inhibition effect of a compound on kinases TrkA, TrkB and TrkC, and the half maximal inhibitory concentration IC50 of the inhibitory activity of the compound on the enzymes was obtained.
(§3) A compound was dissolved in 100% DMSO to a particular concentration, and then the resulting solution was gradient-diluted by an automatic loading device to different concentrations of the test samples (DMSO dissolving solutions).
(§4) 3.1. The reaction substrate was diluted using the base reaction buffer;
(§5) 3.2. The kinase was added into the substrate solution and mixed gently and uniformly;
(§6) 3.3. The compounds of different concentrations diluted in 100% DMSO were added into the kinase solution using an automatic loading system, and incubated for 20 min at room temperature;
(§7) 3.4. ^33P-ATP (10 μM, 10 μCi/μl) was added at room temperature to initiate the kinase reaction, and the reaction was carried out for 2 h.
(§8) The reaction solution was subjected to an ion exchange filtration system to remove unreacted ATP and the generated ADP ions during the reaction. Then, the radiometric quantity of ^33P isotope in the substrate was detected.
(§9) The kinase activity in the system with the addition of the inhibitors of different concentrations was calculated from the radiometric quantity, to obtain the inhibitory effect of the compounds with different concentrations on the kinase activity. Fitting was performed using graphpad prism to obtain IC50 values of the compounds for inhibition.

TrkC = TrkC (Homo sapiens, UniProt Q16288); experiment: Inhibitory activity test for Trk kinases (γ-33P-ATP isotope test), TrkC; format: biochemical; settings: 33P-ATP 10 μM, 2 h reaction; read-out: Kinase IC50 TrkC
Sequence of TrkC (Q16288 32-839, species assumed): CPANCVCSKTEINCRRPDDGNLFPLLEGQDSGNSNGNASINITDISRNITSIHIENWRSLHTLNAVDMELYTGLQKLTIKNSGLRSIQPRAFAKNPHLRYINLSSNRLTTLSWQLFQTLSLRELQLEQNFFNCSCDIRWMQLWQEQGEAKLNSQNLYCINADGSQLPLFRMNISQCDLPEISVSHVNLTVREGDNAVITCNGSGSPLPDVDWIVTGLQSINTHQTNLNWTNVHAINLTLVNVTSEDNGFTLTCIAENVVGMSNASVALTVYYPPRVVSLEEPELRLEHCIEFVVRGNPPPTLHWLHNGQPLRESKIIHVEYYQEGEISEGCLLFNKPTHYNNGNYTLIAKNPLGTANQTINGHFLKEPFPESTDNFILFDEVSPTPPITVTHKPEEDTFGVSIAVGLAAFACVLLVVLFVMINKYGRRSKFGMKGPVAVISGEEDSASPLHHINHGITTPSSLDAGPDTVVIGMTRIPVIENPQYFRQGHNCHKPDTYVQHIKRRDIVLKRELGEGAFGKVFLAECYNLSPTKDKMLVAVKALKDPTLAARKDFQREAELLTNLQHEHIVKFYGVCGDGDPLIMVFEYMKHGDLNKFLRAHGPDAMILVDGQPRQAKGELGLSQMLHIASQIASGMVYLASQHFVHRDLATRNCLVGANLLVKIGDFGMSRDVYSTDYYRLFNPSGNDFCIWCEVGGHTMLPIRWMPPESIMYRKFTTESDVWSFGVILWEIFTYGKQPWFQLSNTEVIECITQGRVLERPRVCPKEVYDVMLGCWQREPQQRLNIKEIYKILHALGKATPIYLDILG
Experimental: as §1, §2, §3, §4, §5, §6, §7, §8, §9

TrkA = TrkA (Homo sapiens, UniProt P04629); experiment: Inhibitory activity test for Trk kinases (γ-33P-ATP isotope test), TrkA; format: biochemical; settings: 33P-ATP 10 μM, 2 h reaction; read-out: Kinase IC50 TrkA
Sequence of TrkA (P04629 33-796, species assumed): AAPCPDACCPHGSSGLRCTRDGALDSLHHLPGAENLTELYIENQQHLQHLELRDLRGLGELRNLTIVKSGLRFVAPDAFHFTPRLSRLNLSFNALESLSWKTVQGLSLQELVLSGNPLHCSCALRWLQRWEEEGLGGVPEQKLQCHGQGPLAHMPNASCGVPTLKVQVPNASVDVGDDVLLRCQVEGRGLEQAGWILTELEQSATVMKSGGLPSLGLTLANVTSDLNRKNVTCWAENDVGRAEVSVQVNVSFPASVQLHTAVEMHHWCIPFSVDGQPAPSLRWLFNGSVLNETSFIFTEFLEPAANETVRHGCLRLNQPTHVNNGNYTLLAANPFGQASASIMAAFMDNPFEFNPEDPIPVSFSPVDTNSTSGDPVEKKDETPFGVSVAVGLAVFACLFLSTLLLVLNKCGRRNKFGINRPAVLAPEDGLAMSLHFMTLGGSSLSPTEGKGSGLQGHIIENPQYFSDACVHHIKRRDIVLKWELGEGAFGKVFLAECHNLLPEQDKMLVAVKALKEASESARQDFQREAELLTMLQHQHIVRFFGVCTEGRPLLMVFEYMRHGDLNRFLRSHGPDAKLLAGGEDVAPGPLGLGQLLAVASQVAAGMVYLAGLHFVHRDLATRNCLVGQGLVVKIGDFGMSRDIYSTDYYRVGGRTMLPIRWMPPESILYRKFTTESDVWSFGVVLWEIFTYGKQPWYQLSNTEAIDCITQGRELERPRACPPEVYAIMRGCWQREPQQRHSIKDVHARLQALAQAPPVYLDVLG
Experimental: as §1, §2, §3, §4, §5, §6, §7, §8, §9

BaF3-tel-NTRK1 = experiment: Growth inhibition test, CellTiter-Glo, tel-NTRK1-BaF3 cells; format: cell-based; settings: 72 hours incubation, read-out: Cell GI50 BaF3-tel-NTRK1
Experimental: (§10) Growth Inhibition Test for Tel-NTRK1-BaF3 and BaF3-LMNA-NTRK1 Cells
(§11) In this experiment, the CellTiter-Glo cell proliferation fluorescence assay was used to test the growth inhibitory effect of a compound on tel-NTRK1-BaF3 and BaF3-LMNA-NTRK1 transgenic cells, and the half maximal growth inhibitory concentration GI50 of the compound on the cells was obtained.
(§12) A compound to be tested was dissolved in DMSO to formulate 10 mM of a mother solution. The mother solution was 3× diluted to 10 mM, 3.333 mM, 1.111 mM, 0.370 mM, 0.123 mM, 0.041 mM, 0.014 mM, 0.005 mM, and 0.002 mM. The prepared solutions were each stored in a 0.5 ml sterilized dorft tube (Corning, USA). In addition, an equal volume of DMSO solvent was used as a blank control. With 10 concentration gradients, the plate was stored in vacuum at −20° C.
The tel-NTRK1-BaF3 and BaF3-LMNA-NTRK1 cell lines were cultured with RPMI 1640 (Corning, N.Y., USA)+10% fetal bovine serum (Gibico, Invitrogen, USA). After the cells were thawed, they were cultured for two generations to be tested.
(§13) Logarithmic growth phase cells (2000-2500 cells/well) were inoculated in a 12×8 96-well white opaque cell culture plate (Corning 3570, NY, USA) in a volume of 100 μL per well, and a drug was added to the cell plate (0.1 μL/well) at the final concentration of the compound of 10 μM, 3.3 μM, 1.1 μM, 0.37 μM, 0.12 IM, 0.04 μM, 0.014 IM, 0.005 μM, and 0.002 μM (0.4 uL of the drug solution was added to 400 ul of the cell homogenate, and then mixed uniformly, and the resulting mixture was added at 100 ul per well). The plate was incubated at 37° C. in a 5% CO2 incubator for 72 hours, and then 20 μL CellTiter-Glo cell proliferation fluorescence assay reagent was added. The plate was allowed to stand for 10 min, and read in the Envision Plate-Reader. […]
A corresponding […] value RLU of each well was obtained by reading in the Envision Plate-reader. […]
The biochemical activity of the compounds of the present invention was determined by the above experiment, and the measured GI50 values are shown in table 2: […]

[1] = Metabolic stability in human liver microsomes; format: in vitro ADME; settings: for Remaining % (60 min) / microsomal CLint at 1 μmol/L: human liver microsomes 0.5 mg/mL, compound 1 μmol/L; for Remaining % (60 min): 37° C.; for Negative control Remaining % (60 min): human liver microsomes, negative control incubation; for half-life at 1 μmol/L: human, liver microsomes; for half-life at 1 μmol/L / microsomal CLint at 1 μmol/L: pH 7.4; for microsomal CLint at 1 μmol/L: read-out: Clint (μL/min/mg protein)
Experimental: Testing on Metabolic Stability of Compounds in Human Liver Microsomes
The total volume of an incubation system was 250 μL, and 50 mmol/L PBS buffer (pH=7.4) was used to prepare incubation solutions of liver microsomes from various species with a protein concentration of 0.5 mg/mL. Before the start of the incubation, 2.5 μL of a 100 μmol/L compound to be tested was mixed with 197.5 μL of the above incubation solution, pre-incubated in a 37° C. water bath for 5 min, and then added with a 50 μL reducing coenzyme II solution (5 mmol/L) that was likewise pre-incubated for 5 min to start the reaction (in the reaction system, the protein content of liver microsomes from various species was 0.5 g/L, and the final concentration of the compound to be tested was 1 μmol/L), incubated in a 37° C. water bath with shaking, and taken out at 0, 5, 15, 30, and 60 min. 600 μL of a methanol solution of mixed positive and negative internal standards with internal standards Terfenadine (positive ion internal standard, 25 ng/mL) and Tolbutamide (negative ion internal standard, 50 ng/mL) was immediately added to terminate the reaction. The incubation solution after termination was shaken for 2 min and centrifuged (4° C., 16000 r/min) for 10 min, and the supernatant was taken for LC-MS/MS detection to quantitatively analyze the remaining amount of the parent drug. (DMSO<0.1%).
The concentration of the compound at 0 min incubation was regarded as 100%, and the concentrations at other incubation time points were converted into the remaining percentages. The natural logarithm of the remaining percentage at each time point was linearly regressed against the incubation time, and the slope k was calculated. According to the formula T1/2=−0.693/k, the in vitro half-life was calculated. Clearance in liver microsomes (CLint (μL/min/mg protein)=Ln (2)*1000/T1/2 (min)/Protein Conc(mg/ml)).
Test data of metabolic stability of the compounds of the present invention in human liver microsomes are listed in detail in table 3: […]

BaF3-LMNA-NTRK1 = experiment: Growth inhibition test, CellTiter-Glo, BaF3-LMNA-NTRK1 cells; format: cell-based; settings: 72 hours incubation, read-out: Cell GI50 BaF3-LMNA-NTRK1
Experimental: as §10, §11
as §12, with “In addition, an equal volume of DMSO solvent was used as a blank control. With 10 concentration gradients, the plate was stored in vacuum at −20° C.” left out
as §13, with “added.” for “added. The plate was allowed to stand for 10 min, and read in the Envision Plate-Reader.”

Sequence of TrkB (Q16620 32-822, species assumed): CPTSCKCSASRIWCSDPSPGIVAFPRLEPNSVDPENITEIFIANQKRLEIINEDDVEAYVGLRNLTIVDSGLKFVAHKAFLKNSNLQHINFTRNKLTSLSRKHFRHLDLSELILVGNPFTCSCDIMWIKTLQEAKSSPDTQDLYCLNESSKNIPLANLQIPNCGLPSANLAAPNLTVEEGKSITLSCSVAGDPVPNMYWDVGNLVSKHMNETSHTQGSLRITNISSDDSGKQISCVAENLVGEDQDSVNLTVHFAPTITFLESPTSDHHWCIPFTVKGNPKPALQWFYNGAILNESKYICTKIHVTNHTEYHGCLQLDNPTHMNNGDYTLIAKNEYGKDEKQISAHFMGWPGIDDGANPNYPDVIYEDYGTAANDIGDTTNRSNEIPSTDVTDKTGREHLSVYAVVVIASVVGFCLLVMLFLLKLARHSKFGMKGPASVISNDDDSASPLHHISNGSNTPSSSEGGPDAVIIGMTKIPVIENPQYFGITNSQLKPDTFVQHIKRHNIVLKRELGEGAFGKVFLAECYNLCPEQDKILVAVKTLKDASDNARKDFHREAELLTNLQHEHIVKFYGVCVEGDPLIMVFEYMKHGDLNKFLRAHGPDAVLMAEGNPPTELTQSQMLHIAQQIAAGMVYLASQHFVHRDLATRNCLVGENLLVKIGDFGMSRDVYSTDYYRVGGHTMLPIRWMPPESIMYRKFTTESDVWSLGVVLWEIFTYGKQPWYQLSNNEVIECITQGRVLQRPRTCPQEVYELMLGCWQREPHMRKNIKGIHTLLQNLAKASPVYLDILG

| SMILES | IC50 (TrkB) [nM] | IC50 (TrkC) [nM] | IC50 (TrkA) [nM] | GI50 (BaF3-tel-NTRK1) [nM] | Remaining % (60 min) [1] [%] | Negative control Remaining % (60 min) [1] [%] | half-life at 1 μmol/L [1] [min] | microsomal CLint at 1 μmol/L [1] [µL/min/mg] | GI50 (BaF3-LMNA-NTRK1) [nM] |
| --- | --- | --- | --- | --- | --- | --- | --- | --- | --- |
| CC1Cc2ncc(F)cc2[C@H]2CCCN2c2ccn3ncc(c3n2)C(=O)NN1C1CC1 (single isomer, unassigned) [Example 3a, (1^3E,1^4E,2^2R,5R or S)-6-cyclopropyl-3^3-fluoro-5-methyl-6,7-diazepine-1(5,3)-pyrazolo(1,5-a]pyrimidine-3(3,2)-pyridine-2(1,2)-pyrrolidine cyclooctane-8-one] | 1.58 | 0.46 | 2.27 | – | – | – | – | – | – |
| CC1Cc2ncc(F)cc2[C@H]2CCCN2c2ccn3ncc(c3n2)C(=O)NN1C1CC1 (single isomer, unassigned) [Example 3b, (1^3E,1^4E,2^2R,5R or S)-6-cyclopropyl-3^5-fluoro-5-methyl-6,7-diazepine-1(5,3)-pyrazolo(1,5-a]pyrimidine-3(3,2)-pyridine-2(1,2)-pyrrolidine cyclooctane-8-one] | 1.13 | 0.38 | 2.16 | – | – | – | – | – | – |
| CC1Cc2ncc(F)cc2[C@H]2CCCN2c2ccn3ncc(c3n2)C(=O)NN1C (single isomer, unassigned) [Example 7a, (1^3E,1^4E,2^2R,5R or S)-3^5-fluoro-5,6-dimethyl-6,7-diazepine-1(5,3)-pyrazolo[1,5-a]pyrimidine-3(3,2)-pyridine-2(1,2)-pyrrolidine cyclooctane-8-one] | 4.04 | 0.58 | 3.2 | – | – | – | – | – | – |
| CC1Cc2ncc(F)cc2[C@H]2CCCN2c2ccn3ncc(c3n2)C(=O)NN1C (single isomer, unassigned) [Example 7b, (1^3E,1^4E,2^2R,5R or S)-3^5-fluoro-5,6-dimethyl-6,7-diazepine-1(5,3)-pyrazolo[1,5-a]pyrimidine-3(3,2)-pyridine-2(1,2)-pyrrolidine cyclooctane-8-one] | 0.71 | 0.19 | 2.62 | – | – | – | – | – | – |
| CCN1NC(=O)c2cnn3ccc(nc23)N2CCC[C@@H]2c2cc(F)cnc2CC1C (single isomer, unassigned) [Example 8a, (1^3E,1^4E,2^2R,5R or S)-3^5-fluoro-6-ethyl-5-methyl-6,7-diazepine-1(5,3)-pyrazolo[1,5-a]pyrimidine-3(3,2)-pyridine-2(1,2)-pyrrolidine cyclooctane-8-one] | 6.19 | 0.76 | 4.01 | – | – | – | – | – | – |
| CCN1NC(=O)c2cnn3ccc(nc23)N2CCC[C@@H]2c2cc(F)cnc2CC1C (single isomer, unassigned) [Example 8b, (1^3E,1^4E,2^2R,5R or S)-3^5-fluoro-6-ethyl-5-methyl-6,7-diazepine-1(5,3)-pyrazolo[1,5-a]pyrimidine-3(3,2)-pyridine-2(1,2)-pyrrolidine cyclooctane-8-one] | 1.35 | 0.34 | 1.85 | – | – | – | – | – | – |
| CC1Cc2ncc(F)cc2[C@H]2CCCN2c2ccn3ncc(c3n2)C(=O)NN1C1CC1 (stereo partly drawn) [Example 2, (1^3E,1^4E,2^2R)-6-cyclopropylamino-3^5-fluoro-5-methyl-6,7-diazepine-1(5,3)-pyrazolo[1,5-a]pyrimidine-3(3,2)-azabenzene-2(1,2)-pyrrolidine cyclooctane-8-one] | – | – | 3.81 | 18 | – | – | – | – | – |
| CN1CCc2ncc(F)cc2[C@H]2CCCN2c2ccn3ncc(c3n2)C(=O)N1 [Example 4, (R,1^3E,1^4E)-3^5-fluoro-6-methyl-6,7-diazepine-1(5,3)-pyrazolo[1,5-a]pyrimidine-3(3,2)-azabenzene-2(1,2)-pyrrolidine cyclooctane-8-one] | – | – | 12.6 | – | 88.39 | 108.0 | 217 | 6.4 | – |
| CCN1CCc2ncc(F)cc2[C@H]2CCCN2c2ccn3ncc(c3n2)C(=O)N1 [Example 5, (R,1^3E,1^4E)-6-ethyl-3^3-fluoro-6,7-diazepine-1(5,3)-pyrazolo[1,5-a]pyrimidine-3(3,2)-azabenzene-2(1,2)-pyrrolidine cyclooctane-8-one] | – | – | 7.92 | – | – | – | – | – | – |
| CC(C)N1CCc2ncc(F)cc2[C@H]2CCCN2c2ccn3ncc(c3n2)C(=O)N1 [Example 6, (R,1^3E,1^4E)-3^5-fluoro-6-isopropyl-6,7-diazepine-1(5,3)-pyrazolo[1,5-a]pyrimidine-3(3,2)-pyridine-2(1,2)-pyrrolidine cyclooctane-8-one] | 0.83 | 0.29 | 2.09 | – | – | – | – | – | – |
| CC(C)CN1CCc2ncc(F)cc2[C@H]2CCCN2c2ccn3ncc(c3n2)C(=O)N1 [Example 9, (R,1^3E,1^4E)-3^5-fluoro-6-isobutyl-6,7-diazepine-1(5,3)-pyrazolo[1,5-a]pyrimidine-3(3,2)-pyridine-2(1,2)-pyrrolidine cyclooctane-8-one] | 2.16 | 0.32 | 2.36 | – | – | – | – | – | – |
| O=C(Nc1cnn2ccc(N3CCC[C@@H]3c3cc(F)ccc3F)nc12)N1CC[C@H](O)C1 [LOXO-101, reference compound] | – | – | – | 24.6 | 47.78 | 95.9 | 59.2 | 23.4 | 35.7 |
| C[C@@H]1CCc2ncc(F)cc2[C@H]2CCCN2c2ccn3ncc(c3n2)C(=O)N1 [LOXO-195, reference compound] | – | – | – | – | 6.70 | 102 | 15.3 | 90.6 | – |

From patent publication US11597729B2, “Tropomyosin receptor kinase inhibitor, preparation method therefor and use thereof” (JIANGSU VCARE PHARMATECH CO., LTD., priority 2018, dated 2023)
